# According to patent US6703362B1, “Random peptides that bind to gastro-intestinal tract (GIT) transport receptors and related methods” (Cytogen Corporation, priority 1997, dated 2004):
# Square brackets hold non-standard residues; d marks the D form. Peptide text beside a SMILES is read from it. * marks the point of attachment. Dansyl = CN(C)c1cccc2c(S(=O)(=O)*)cccc12
# Legend:
# fixed Caco-2 cells [1] = assay: Inhibition of GST-peptide fusion binding to fixed Caco-2 cells by synthetic peptides; conditions: peptide from 100 μg/ml serially diluted; GST fusion 10 μg
# Excerpt: Caco-2 cells were fixed, treated with phenylhydrazine and blocked as described above. […] GST-PAX2 binding was inhibited by ZElan032, ZElan033, and ZElan035.
# [2] = Peptide stability in simulated intestinal fluid (SIF); assay type: in vitro ADME; conditions: for Rel. Stab.: rank, 1 = most stable to SIF; for remaining at 1 min, 1 mg/ml / remaining at 1 h, 1 mg/ml / remaining at 3 h, 1 mg/ml / remaining at 24 h, 1 mg/ml: simulated intestinal fluid (pancreatin), pH 7.5, 10,000 fold diluted SIF, 37° C.; for remaining at 1 min, 1 mg/ml: read-out: Percent Remaining at: 1 m; for remaining at 1 h, 1 mg/ml: read-out: Percent Remaining at: 1 h; for remaining at 3 h, 1 mg/ml: read-out: Percent Remaining at: 3 h; for remaining at 24 h, 1 mg/ml: read-out: Percent Remaining at: 24 h
# Protocol: The relative stability for ZElanO3l, ZElanO53 and ZElan054 was determined in simulated intestinal fluid (SIF) SIF was made by dissolving 100 mg of pancreatin (Sigma cat#P-1625, lot# 122H0812)in 8.4 ml of phosphate stock solution, adjusting the pH to 7.5 with 0.2N NaOH and adjusting the volume to 10 ml with water.
# Peptide (3.25 mg) was dissolved in 3.25 ml of 10,000 fold diluted SIF solution at 37° C. Aliquots (0.7 ml) of the digestion solution were then withdrawn at <1 min, 1 h, 3 h, and 21 h or 24 h. The samples were quickly passed through a syringe filter (Millipore Millex-GV 0.22 μm, part# SLGV025LS, lot# H2BM95250) and 300 μL of the filtered solution was immediately injected onto a Hewlett-Packard HPLC system equipped with a C-8 column (Applied Biosystems column and guard column: column-p/n 0711-0023 Spheri-5 ODS 5 μm, 220×4.6 mm). The products were eluted at 1.5 ml/min using an acetonitrile-water gradient. The major fluorescent peaks were collected, lyopholized and identified by MS analysis.
# [3] = test system: P100 membrane fractions derived from Caco-2 cells; assay: Dansylated peptide ELISA: relative binding of PAX2 and HAX42 peptides to P100 (ratio to ZElan021); conditions: PAX2 peptides, ratio to ZElan021 = 1.00
# Protocol: (§1) The peptides and proteins were analyzed by a dansylated peptide ELISA method in which 96 well plates were coated overnight at 4° C. with 100 μl/well coating protein (normally 100 μg/ml P100 membrane fraction) in 0.05M carbonate buffer pH9.6. Nonspecific binding was blocked using 200 μl/well, 2% Marvel/PBS for 2 hours at 37° C. prior to incubation with dansylated peptides. The plates were washed three times with PBS/0.05% Tween 20 and after each subsequent incubation step. […] A buffer blank control was included to ensure that background binding to plastic was not due to the antibodies used in the assay system. […] The plates were then incubated with an anti-mouse X-HRP conjugated antibody (Southern Biotech 1060-05) at a 1:10,000 dilution in blocking solution, 100 μl/well for 1 hour at room temperature. Plates were developed using 75 μl/well Bionostics TMB substrate and incubated for approximately 10 minutes. The developing reaction was stopped using Bionostics Red Stop solution (25 μl/well), and the optical density of the plates was read at 650nm.
# intestinal tissue = assay: Preselected phage libraries, rat closed loop: absorption/internalization to intestinal tissue (hybridization autoradiograph); assay type: in vivo
# [4] = Isoelectric points of synthetic peptides; assay type: physicochemical
# fixed Caco-2 cells [5] = assay: Effect of thrombin cleavage on binding of GST-peptide fusions to fixed Caco-2 cells; conditions: thrombin 18 h at room temperature
# Protocol: Binding of intact and thrombin-cleaved GST-peptide fusions to fixed Caco-2 cells was compared.
# Thirty micrograms of each GST-peptide was treated with bovine thrombin (1 μ/ml; 0.4 NIH units; Sigma CN.T9681) for 18 h at room temperature in 2OmM Tris-HCl pH8.0, 150 mM NaCl, 2.5 mM CaCl2. Controls were similarly treated without addition of thrombin. Ten micrograms of each GST-peptide fusion was removed for PAGE analysis, and 10 μg of fusions were added in duplicate to the fixed Caco-2 cells before 5-fold serial dilutions (1% BPT diluent). The fusions were allowed to bind for 1 h at room temperature. Following 6 washes with 1% BPT, binding was assayed by ELISA.
# [6] = test system: fixed Caco-2 or C2BBe1 cells; assay: ELISA of GST fusion proteins on fixed Caco-2 or C2BBe1 cells; assay type: binding
# Protocol: Fixed Caco-2, C2BBe1, and A431 cell plates were prepared by growing cells on tissue culture treated microtiter plates. When cells were confluent, plates were fixed with 10% formaldehyde, washed twice with PBS and stored with 0.5%BSA-PBS at −20° C. […] The standard ELISA procedure was followed at this point.
# The standard ELISA procedure was modified as follows. GST proteins were diluted to an appropriate concentration in PBS containing lkBSA and 0.05% Tween20 (1%BPT), titered and incubated one hour at room temperature. Following five washes an anti-GST monoclonal antibody was added (Sigma, St. Louis Clone GST-2 diluted 1:10,000 in 1%BPT) and incubated one hour. After five more washes goat anti-mouse IgG2b-HRP was added (Southern Biotechnology Associates Inc., Birmingham, Ala., diluted 1:4000 in 1%BPT) and incubated one hour. After five washes plates were developed with TMB peroxidase substrate (Kirkegard and Perry, Gaithersburg, Md.). All data is presented with background binding subtracted.
# [7] = test system: P100 membrane fraction derived from Caco-2 cells; assay: GST-PAX2 peptides relative binding to P100 fractions (ratio to GST-HAX42); conditions: 20 μg/ml GST-peptide; binding to plastic subtracted; GST-HAX42 = 1.00
# Protocol: as §1
# After subtraction of the GST-peptide binding to plastic from P100 binding values, the binding of GST-PAX2 peptides were represented as a ratio of GST-HAX42 binding to P100, which was given the arbitrary value of 1.00. The following ratios were determined from binding to P100 of GST-peptides at a peptide concentration of 20 μg/ml. Bold denotes positive binding to the P100 membrane fraction.
compound,measurement,setting,value
C[C@@H](O)[C@H](NC(=O)[C@@H](N)CCCCNS(=O)(=O)c1cccc2c(N(C)C)cccc12)C(=O)N[C@@H](CCCNC(=N)N)C(=O)N[C@@H](CCCCN)C(=O)N[C@@H](CO)C(=O)N[C@@H](CO)C(=O)N[C@@H](CCCNC(=N)N)C(=O)N[C@@H](CO)C(=O)N[C@@H](CC(N)=O)C(=O)N1CCC[C@H]1C(=O)N[C@@H](CCCNC(=N)N)C(=O)NCC(=O)N[C@@H](CCCNC(=N)N)C(=O)N[C@@H](CCCNC(=N)N)C(=O)N[C@@H](Cc1c[nH]cn1)C(=O)N1CCC[C@H]1C(=O)NCC(N)=O [ZElan031] (H-K(Dansyl)TRKSSRSNPRGRRHPG-NH2),inhibition of GST-P31 binding,fixed Caco-2 cells [1],inhibited
same,Rel. Stab.,[2],3
same,"remaining at 1 min, 1 mg/ml",[2],100%
same,"remaining at 1 h, 1 mg/ml",[2],38.7%
same,"remaining at 3 h, 1 mg/ml",[2],0%
same,"remaining at 24 h, 1 mg/ml",[2],0%
CC(C)C[C@H](NC(=O)[C@H](CCCNC(=N)N)NC(=O)[C@H](CCCNC(=N)N)NC(=O)[C@H](CC(N)=O)NC(=O)[C@H](Cc1c[nH]cn1)NC(=O)[C@H](CO)NC(=O)[C@H](CO)NC(=O)[C@H](Cc1c[nH]cn1)NC(=O)[C@H](CCCCN)NC(=O)[C@H](C)NC(=O)[C@H](CC(N)=O)NC(=O)[C@@H](NC(=O)[C@@H](N)CCCCNS(=O)(=O)c1cccc2c(N(C)C)cccc12)[C@@H](C)O)C(=O)N[C@@H](CCCNC(=N)N)C(=O)N[C@H](C(=O)N[C@@H](CCCNC(=N)N)C(=O)N[C@@H](CO)C(=O)N[C@@H](CCCNC(=N)N)C(=O)N1CCC[C@H]1C(=O)N[C@@H](CC(N)=O)C(N)=O)[C@@H](C)O [ZElan032] (H-K(Dansyl)TNAKHSSHNRRLRTRSRPN-NH2),inhibition of GST-PAX2 binding,fixed Caco-2 cells [1],inhibited
same,Binding value at 20 μg/ml,[3]; first 20 μg/ml column,1.43
same,Binding value at 50 μg/ml,[3]; first 50 μg/ml column,0.95
same,Binding value at 20 μg/ml,[3]; second 20 μg/ml column,2.87
same,Binding value at 50 μg/ml,[3]; second 50 μg/ml column,1.06
CC(C)C[C@H](NC(=O)[C@H](CCCNC(=N)N)NC(=O)[C@H](CCCNC(=N)N)NC(=O)[C@H](CC(N)=O)NC(=O)[C@H](Cc1c[nH]cn1)NC(=O)[C@H](CO)NC(=O)[C@H](CO)NC(=O)[C@H](Cc1c[nH]cn1)NC(=O)[C@H](CCCCN)NC(=O)[C@H](C)NC(=O)[C@H](CC(N)=O)NC(=O)[C@@H](NC(=O)[C@@H](N)CCCCNS(=O)(=O)c1cccc2c(N(C)C)cccc12)[C@@H](C)O)C(=O)N[C@@H](CCCNC(=N)N)C(=O)N[C@H](C(=O)N[C@@H](CCCNC(=N)N)C(N)=O)[C@@H](C)O [ZElan033] (H-K(Dansyl)TNAKHSSHNRRLRTR-NH2),inhibition of GST-PAX2 binding,fixed Caco-2 cells [1],inhibited
same,Binding value at 20 μg/ml,[3]; first 20 μg/ml column,0.35
same,Binding value at 50 μg/ml,[3]; first 50 μg/ml column,0.80
same,Binding value at 20 μg/ml,[3]; second 20 μg/ml column,1.57
same,Binding value at 50 μg/ml,[3]; second 50 μg/ml column,0.66
CC(C)C[C@H](NC(=O)[C@H](CCCNC(=N)N)NC(=O)[C@H](CCCNC(=N)N)NC(=O)[C@H](CC(N)=O)NC(=O)[C@H](Cc1c[nH]cn1)NC(=O)[C@H](CO)NC(=O)[C@H](CO)NC(=O)[C@@H](N)CCCCNS(=O)(=O)c1cccc2c(N(C)C)cccc12)C(=O)N[C@@H](CCCNC(=N)N)C(=O)N[C@H](C(=O)N[C@@H](CCCNC(=N)N)C(N)=O)[C@@H](C)O [ZElan035] (H-K(Dansyl)SSHNRRLRTR-NH2),inhibition of GST-PAX2 binding,fixed Caco-2 cells [1],inhibited
same,Binding value at 20 μg/ml,[3]; first 20 μg/ml column,0.12
same,Binding value at 50 μg/ml,[3]; first 50 μg/ml column,0.81
same,Binding value at 20 μg/ml,[3]; second 20 μg/ml column,0.43
same,Binding value at 50 μg/ml,[3]; second 50 μg/ml column,0.77
"C[C@@H](O)[C@H](NC(=O)[C@@H](N)CCCCNS(=O)(=O)c1cccc2c(N(C)C)cccc12)C(=O)N[C@@H](CCCNC(=N)N)C(=O)N[C@@H](CCCCN)C(=O)N[C@@H](CO)C(=O)N[C@@H](CO)C(=O)N[C@H](CCCNC(=N)N)C(=O)N[C@@H](CO)C(=O)N[C@@H](CC(N)=O)C(=O)N1CCC[C@H]1C(=O)N[C@@H](CCCNC(=N)N)C(=O)NCC(=O)N[C@H](CCCNC(=N)N)C(=O)N[C@@H](CCCNC(=N)N)C(=O)N[C@@H](Cc1c[nH]cn1)C(=O)N1CCC[C@H]1C(=O)NCC(N)=O [ZElan054, H2N—K(dns)TRKSSrSNPRGrRHPG—CONH2] (H-K(Dansyl)TRKSS[dR]SNPRG[dR]RHPG-NH2)",inhibition of GST-P31 binding,fixed Caco-2 cells [1],inhibited
same,Rel. Stab.,[2],2
same,"remaining at 1 min, 1 mg/ml",[2],97.4%
same,"remaining at 1 h, 1 mg/ml",[2],58.2%
same,"remaining at 3 h, 1 mg/ml",[2],11.6%
same,"remaining at 24 h, 1 mg/ml",[2],2.7%
"H-K(Dansyl)SEANLDGRKSRYSSPRRNSSTRPRTSPNSVHARYPSTDHD-NH2 [ZElan026, reference compound]",inhibition of GST-HAX42 binding,fixed Caco-2 cells [1],inhibited
"H-K(Dansyl)SRANTDGRKSRYSSPRRNSSTEPRLSPNSVHARYPSTDHD-NH2 [ZElan038, reference compound]",inhibition of GST-HAX42 binding,fixed Caco-2 cells [1],inhibited
RVGQCTDSDVRRPWARSCAHQGCGAGTRNSHGCITRPLRQASAH [Phage SNi10],found in the intestine samples or fractions,intestinal tissue; hSI pool of phages,found in the intestine samples or fractions
STPPSREAYSRPYSVDSDSDTNAKHSSHNRRLRTRSRPN [PAX2],binding to the intestine / found in the intestine samples,intestinal tissue; hPEPT1 pool of phages,not found in the intestine samples
same,pI,[4],11.26
gst-ENANTRKSSRSNPRGRRHP [GST-P31.103],effect of thrombin cleavage on detection of binding,fixed Caco-2 cells [5],significantly reduced detection of binding
same,binding of truncation to fixed Caco-2 cells relative to full-length fusion,[6],bound almost as well as full-length P31
gst-RGSTGTAGGERSGVLNLHTRDNASGSGFKPWYPSNRGHK [GST-5PAX5],binding to fixed Caco-2 or C2BBe1 cells relative to GST control,[6],weak to moderate binding
gst-RRLRTRSRPN [GST-115],Value (binding to P100 as ratio of GST-HAX42 binding),[7],0.36
gst-RVGQCTDSDVRRPWARSCAHQGCGAGTRNSHGCITRPLRQASAH [GST-SNi10],effect of thrombin cleavage on detection of binding,fixed Caco-2 cells [5],significantly reduced detection of binding
same,binding to fixed Caco-2 or C2BBe1 cells relative to GST control,[6],bound fixed Caco-2 or C2BBe1 cells
gst-SPCGGGSWGRFMQGGLFGGRTDGCGAHRNRTSASLEPPSSDY [GST-SNi34],binding to fixed Caco-2 or C2BBe1 cells relative to GST control,[6],bound fixed Caco-2 or C2BBe1 cells
gst-SRPYSVDSDSDTNAKHSSHNR [GST-105],Value (binding to P100 as ratio of GST-HAX42 binding),[7],−0.08
gst-SSHNRRLRTR [GST-114],Value (binding to P100 as ratio of GST-HAX42 binding),[7],0.17
gst-STPPSREAYSRPYSVDSDSD [GST-104],Value (binding to P100 as ratio of GST-HAX42 binding),[7],0.01
gst-TNAKHSSHN [GST-113],Value (binding to P100 as ratio of GST-HAX42 binding),[7],0.26
